The target of data set [1] is T1, Inhibitor of nuclear factor kappa-B kinase subunit beta (Homo sapiens, UniProt O14920).
T1 sequence (O14920 whole entry): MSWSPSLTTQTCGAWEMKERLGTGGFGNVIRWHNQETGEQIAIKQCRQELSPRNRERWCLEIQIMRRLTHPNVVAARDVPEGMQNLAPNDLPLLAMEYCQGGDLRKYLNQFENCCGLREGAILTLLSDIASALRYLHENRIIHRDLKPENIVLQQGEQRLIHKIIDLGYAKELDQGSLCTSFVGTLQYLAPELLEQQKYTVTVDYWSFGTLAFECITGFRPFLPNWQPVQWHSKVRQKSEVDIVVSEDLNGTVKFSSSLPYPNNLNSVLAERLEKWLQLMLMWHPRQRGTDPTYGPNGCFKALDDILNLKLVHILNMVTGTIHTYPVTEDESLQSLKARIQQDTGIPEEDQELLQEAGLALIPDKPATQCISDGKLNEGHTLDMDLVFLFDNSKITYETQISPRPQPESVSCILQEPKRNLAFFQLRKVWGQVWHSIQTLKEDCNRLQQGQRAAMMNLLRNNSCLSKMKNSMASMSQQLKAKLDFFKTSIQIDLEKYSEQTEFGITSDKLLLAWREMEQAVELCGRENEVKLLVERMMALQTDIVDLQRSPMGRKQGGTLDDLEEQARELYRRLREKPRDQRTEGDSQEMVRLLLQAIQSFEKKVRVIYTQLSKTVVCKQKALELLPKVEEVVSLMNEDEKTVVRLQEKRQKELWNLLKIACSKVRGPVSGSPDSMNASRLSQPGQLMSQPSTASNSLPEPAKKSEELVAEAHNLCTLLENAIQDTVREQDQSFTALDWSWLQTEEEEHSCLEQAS

A short description of data set [2]: Half life in human liver microsome. The class given is ADME. Conditions: liver microsomes.
Data set [3] is described as follows: Solubility at pH 7.4. The data set is classed as physicochemical. Conditions: buffer.
The nature of data set [4]: Permeability from apical to basolateral side of Caco-2 cell membrane. Conditions: human, read-out: permeability. The data set is classed as ADME, cell-based.
A further data set concerns the target Cytochrome P450 3A4 (Homo sapiens, UniProt P08684). The experiment in a line: Inhibition of CYP3A4. The data set is classed as ADME.
The target in a further data set is Cytochrome P450 2D6 (Homo sapiens, UniProt P10635). The experiment in a line: Inhibition of CYP2D6. The class given is ADME.
A further data set concerns HeLa. In words: Viability of HeLa cells at 50 uM by alomar blue assay. The class given is functional, Homo sapiens.
The target in another data set is Cytochrome P450 2C9 (Homo sapiens, UniProt P11712). The experiment in a line: Inhibition of CYP2C9. The data set is classed as ADME.
Data set [5] deals with T2, Inhibitor of nuclear factor kappa-B kinase subunit alpha (Homo sapiens, UniProt O15111).
T2 sequence (O15111 whole entry): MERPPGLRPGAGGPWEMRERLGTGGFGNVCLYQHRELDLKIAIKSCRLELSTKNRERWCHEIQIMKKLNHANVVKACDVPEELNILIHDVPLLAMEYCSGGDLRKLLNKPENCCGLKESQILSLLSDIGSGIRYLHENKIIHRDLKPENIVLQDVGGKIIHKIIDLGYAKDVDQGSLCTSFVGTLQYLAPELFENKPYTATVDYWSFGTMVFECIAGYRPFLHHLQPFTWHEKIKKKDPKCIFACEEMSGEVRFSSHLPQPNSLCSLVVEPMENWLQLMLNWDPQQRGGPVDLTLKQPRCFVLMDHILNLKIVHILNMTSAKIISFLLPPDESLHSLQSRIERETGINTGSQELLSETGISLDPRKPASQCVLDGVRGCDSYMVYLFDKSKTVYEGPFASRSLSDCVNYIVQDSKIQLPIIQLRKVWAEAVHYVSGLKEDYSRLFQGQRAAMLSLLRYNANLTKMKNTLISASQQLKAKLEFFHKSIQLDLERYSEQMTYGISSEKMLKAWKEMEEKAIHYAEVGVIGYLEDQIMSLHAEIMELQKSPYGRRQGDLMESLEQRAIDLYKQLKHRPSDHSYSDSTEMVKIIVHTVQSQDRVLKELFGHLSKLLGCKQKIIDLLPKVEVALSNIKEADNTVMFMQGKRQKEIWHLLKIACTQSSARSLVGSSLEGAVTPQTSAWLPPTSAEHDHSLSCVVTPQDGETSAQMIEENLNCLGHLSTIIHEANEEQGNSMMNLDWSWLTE
In words: Inhibition of IKK alpha.

A further data set addresses T3, Cytochrome P450 1A2 (Homo sapiens, UniProt P05177).
T3 sequence (P05177 whole entry): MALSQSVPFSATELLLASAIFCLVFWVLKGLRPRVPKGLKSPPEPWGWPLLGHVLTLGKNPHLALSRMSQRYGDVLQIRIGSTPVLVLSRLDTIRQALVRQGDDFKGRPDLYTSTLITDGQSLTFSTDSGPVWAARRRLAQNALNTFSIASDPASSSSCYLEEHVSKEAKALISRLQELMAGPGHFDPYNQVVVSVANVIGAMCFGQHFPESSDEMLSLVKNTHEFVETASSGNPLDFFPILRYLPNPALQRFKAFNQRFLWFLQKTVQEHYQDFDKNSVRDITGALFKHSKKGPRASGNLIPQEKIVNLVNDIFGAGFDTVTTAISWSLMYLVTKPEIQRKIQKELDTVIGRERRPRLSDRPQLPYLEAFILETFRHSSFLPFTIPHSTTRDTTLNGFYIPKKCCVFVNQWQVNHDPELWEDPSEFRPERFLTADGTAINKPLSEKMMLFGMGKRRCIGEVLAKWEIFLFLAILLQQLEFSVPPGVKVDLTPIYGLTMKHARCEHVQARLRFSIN
The experiment in a line: Inhibition of CYP1A2. The class given is ADME.

The target in a further data set is Cytochrome P450 2C19 (Homo sapiens, UniProt P33261). The experiment in a line: Inhibition of CYP2C19. The data set is classed as ADME.
Data set [6] in a line: Inhibition of ICAM1 expression in HeLa cells at 10 uM. The data set is classed as functional. Conditions: Homo sapiens.
The nature of data set [7]: Inhibition of NF-kappaB luciferase reporter gene in HeLa cells at 10 uM. The data set is classed as functional. Conditions: Homo sapiens.
Data set [8] has as its target Tyrosine-protein kinase BTK (Homo sapiens, UniProt Q06187). The experiment in a line: Inhibition of BTK.

≈ marks a conversion by molar mass, not a printed value.

Chain of Cytochrome P450 2C9 (P11712 whole entry): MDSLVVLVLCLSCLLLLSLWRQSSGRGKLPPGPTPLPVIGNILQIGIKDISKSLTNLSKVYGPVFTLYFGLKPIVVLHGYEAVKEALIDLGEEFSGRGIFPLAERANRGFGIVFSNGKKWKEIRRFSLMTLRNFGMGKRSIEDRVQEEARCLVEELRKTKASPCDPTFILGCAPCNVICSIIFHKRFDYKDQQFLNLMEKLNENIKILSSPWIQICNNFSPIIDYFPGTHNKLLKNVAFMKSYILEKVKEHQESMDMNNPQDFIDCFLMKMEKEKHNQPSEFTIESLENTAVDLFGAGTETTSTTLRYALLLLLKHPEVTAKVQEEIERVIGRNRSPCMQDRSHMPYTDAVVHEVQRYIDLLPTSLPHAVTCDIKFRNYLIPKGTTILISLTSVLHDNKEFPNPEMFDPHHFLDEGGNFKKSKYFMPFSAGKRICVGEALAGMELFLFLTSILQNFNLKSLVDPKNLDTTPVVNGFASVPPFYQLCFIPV
Chain of Cytochrome P450 2C19 (P33261 whole entry): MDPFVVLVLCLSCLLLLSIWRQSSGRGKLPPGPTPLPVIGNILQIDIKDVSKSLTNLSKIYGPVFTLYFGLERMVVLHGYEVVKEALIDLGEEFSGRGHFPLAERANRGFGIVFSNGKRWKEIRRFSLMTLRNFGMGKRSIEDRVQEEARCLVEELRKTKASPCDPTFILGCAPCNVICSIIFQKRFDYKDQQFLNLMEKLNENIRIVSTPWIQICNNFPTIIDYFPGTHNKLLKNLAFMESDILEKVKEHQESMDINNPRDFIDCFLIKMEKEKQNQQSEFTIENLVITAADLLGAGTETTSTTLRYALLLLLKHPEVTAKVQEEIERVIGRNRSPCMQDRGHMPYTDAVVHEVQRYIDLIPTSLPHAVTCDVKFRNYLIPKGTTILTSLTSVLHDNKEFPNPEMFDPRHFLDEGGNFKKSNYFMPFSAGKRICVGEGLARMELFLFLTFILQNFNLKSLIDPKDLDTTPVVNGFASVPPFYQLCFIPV
Chain of Cytochrome P450 3A4 (P08684 whole entry): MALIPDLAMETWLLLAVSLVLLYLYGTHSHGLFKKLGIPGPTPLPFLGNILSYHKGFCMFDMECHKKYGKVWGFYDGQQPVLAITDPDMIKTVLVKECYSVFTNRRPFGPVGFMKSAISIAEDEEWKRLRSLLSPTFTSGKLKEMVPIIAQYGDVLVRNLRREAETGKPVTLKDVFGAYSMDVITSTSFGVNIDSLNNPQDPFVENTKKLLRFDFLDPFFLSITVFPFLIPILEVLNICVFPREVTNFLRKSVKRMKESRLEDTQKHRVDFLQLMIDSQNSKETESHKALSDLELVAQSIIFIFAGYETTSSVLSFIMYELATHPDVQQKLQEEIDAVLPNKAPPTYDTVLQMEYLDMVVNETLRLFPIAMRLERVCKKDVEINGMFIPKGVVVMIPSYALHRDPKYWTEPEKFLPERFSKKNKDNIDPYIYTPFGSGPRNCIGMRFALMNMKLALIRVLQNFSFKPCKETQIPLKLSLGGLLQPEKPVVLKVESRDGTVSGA
Chain of Cytochrome P450 2D6 (P10635 whole entry): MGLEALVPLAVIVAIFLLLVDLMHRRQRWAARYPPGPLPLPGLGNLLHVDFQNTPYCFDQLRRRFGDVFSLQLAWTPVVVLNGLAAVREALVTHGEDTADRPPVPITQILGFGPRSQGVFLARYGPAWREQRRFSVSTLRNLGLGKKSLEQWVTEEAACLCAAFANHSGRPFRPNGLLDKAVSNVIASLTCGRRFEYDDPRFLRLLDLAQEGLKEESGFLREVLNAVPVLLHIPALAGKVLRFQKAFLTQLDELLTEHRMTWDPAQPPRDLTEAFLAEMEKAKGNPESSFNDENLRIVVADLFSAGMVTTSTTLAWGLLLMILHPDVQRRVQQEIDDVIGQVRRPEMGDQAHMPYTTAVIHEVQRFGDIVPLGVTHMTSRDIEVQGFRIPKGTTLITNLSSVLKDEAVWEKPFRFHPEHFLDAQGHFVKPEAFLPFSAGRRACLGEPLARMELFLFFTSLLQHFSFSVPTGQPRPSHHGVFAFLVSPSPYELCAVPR
Chain of Tyrosine-protein kinase BTK (Q06187 whole entry): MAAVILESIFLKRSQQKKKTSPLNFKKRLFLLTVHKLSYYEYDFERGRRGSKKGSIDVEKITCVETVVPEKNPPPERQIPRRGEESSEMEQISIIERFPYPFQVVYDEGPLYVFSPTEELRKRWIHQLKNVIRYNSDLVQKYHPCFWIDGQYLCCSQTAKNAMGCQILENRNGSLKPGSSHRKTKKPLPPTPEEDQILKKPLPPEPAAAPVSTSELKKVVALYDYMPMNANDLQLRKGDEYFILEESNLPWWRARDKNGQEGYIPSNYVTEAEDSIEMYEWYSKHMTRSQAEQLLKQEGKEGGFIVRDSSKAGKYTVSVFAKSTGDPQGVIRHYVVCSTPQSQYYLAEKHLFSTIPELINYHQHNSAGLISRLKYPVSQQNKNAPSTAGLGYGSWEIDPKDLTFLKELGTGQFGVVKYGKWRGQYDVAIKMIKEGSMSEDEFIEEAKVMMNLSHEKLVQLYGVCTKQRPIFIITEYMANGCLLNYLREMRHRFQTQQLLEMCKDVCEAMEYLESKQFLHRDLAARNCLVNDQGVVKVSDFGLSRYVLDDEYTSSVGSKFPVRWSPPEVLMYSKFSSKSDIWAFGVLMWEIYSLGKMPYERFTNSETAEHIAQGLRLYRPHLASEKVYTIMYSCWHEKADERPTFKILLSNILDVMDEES

In data set [1], `NC(=O)c1sc(-c2ccsc2)cc1N` displayed a half-inhibitory concentration (IC50) of 1.3 µM.

As for `NC(=O)c1ccc(-c2nc(C(N)=O)c(N)o2)cc1`, in [1], the half-maximal inhibitory concentration (IC50) turned out to be 25.8 µM.

`NC(=O)c1c(N)nc2ccc(Cl)cc2c1-c1ccccc1` returned a half-maximal inhibitory concentration (IC50) in data set [1] of over 35 µM.

`Cc1cc(COc2ccccc2)c2c(N)c(C(N)=O)sc2n1` returned a 50% inhibitory concentration (IC50) in data set [1] of 8.2 µM.

In data set [1], `NC(=O)c1cc2ccccc2nc1N` came in with a half-maximal inhibitory concentration (IC50) of 9.6 µM.

On to `Cc1cc(CO)c2c(N)c(C(N)=O)sc2n1`, for which the IC50 in [1] worked out at 12.7 µM.

In data set [1], `NC(=O)c1nc(-c2cccc(Cl)c2)oc1N` had an IC50 of 10.6 µM.

In [1], `NC(=O)c1ccc(-c2ccc(Cl)cc2)s1` returned a half-maximal inhibitory concentration (IC50) of over 50 µM.

As to `NC(=O)c1sc2ncccc2c1N`, the half-maximal inhibitory concentration (IC50) was 7.4 µM in [1]; over 30 µM at Cytochrome P450 3A4; over 30 µM at Cytochrome P450 2D6; over 30 µM at Cytochrome P450 2C9; 21 µM in [5]; over 30 µM against Cytochrome P450 1A2. Moreover, the 50% inhibitory concentration (IC50) against Cytochrome P450 2C19 is over 30 µM. This compound also displayed a half-life in data set [2] of 146 min. The compound also showed a solubility in [3] of 32 µg/mL (≈ 166 µM). In [4], the Papp A→B is 12.8 ×10⁻⁶ cm/s. In the data set on HeLa, this compound registered an Activity of 93%.

Take `NC(=O)c1sc(-c2ccccc2)cc1N`: the half-maximal inhibitory concentration (IC50) is 1.1 µM in data set [1]; 3.5 µM against Cytochrome P450 3A4; over 30 µM at Cytochrome P450 2D6; 26 µM against Cytochrome P450 2C9; over 30 µM in data set [5]; 5 µM at Cytochrome P450 1A2. For the same compound, the IC50 is over 30 µM against Cytochrome P450 2C19 and 15.1 µM in data set [8]. Also, the half-life in data set [2] was 22 min. For the same compound, in [3], the solubility was 10 µg/mL (≈ 45.8 µM). For the same compound, in [4], the Papp A→B stood at 9.3 ×10⁻⁶ cm/s. The inhibition at 10 µM came out at 42% in [6] and 20% in data set [7]. In addition, in the data set with HeLa, the Activity came out at 100%.

As to `COc1cccc(-c2nc(C(N)=O)c(N)o2)c1`, the 50% inhibitory concentration (IC50) in data set [1] came out at 13.9 µM.

With `NC(=O)c1sc(-c2ccc(F)cc2)cc1N`, the IC50 in data set [1] is 2.6 µM; on Cytochrome P450 3A4, 2 µM; against Cytochrome P450 2D6, over 30 µM; at Cytochrome P450 2C9, 7 µM; in data set [5] it was 24 µM; against Cytochrome P450 1A2, 12 µM. For the same compound, the IC50 against Cytochrome P450 2C19 is 4 µM. In data set [2], this compound registered a half-life of 12 min. The same compound came in with a solubility in [3] of 7 µg/mL (≈ 29.6 µM). In addition, the Papp A→B in data set [4] stood at 19.3 ×10⁻⁶ cm/s. Besides, the inhibition at 10 µM was found to be 48% in data set [6] and 45% in data set [7]. For the same compound, in the data set on HeLa, the Activity is listed as 100%.

`Cc1cc(COc2ccc(C#N)cc2)c2c(N)c(C(N)=O)sc2n1` yielded a half-inhibitory concentration (IC50) in data set [1] of 5.6 µM.

`COc1ccc(OCc2cc(C)nc3sc(C(N)=O)c(N)c23)cc1`: the half-inhibitory concentration (IC50) in data set [1] came to 13 µM.

Turning to `CCC(=O)Nc1cc(-c2ccccc2)sc1C(N)=O`, in data set [1], the IC50 stood at 10.3 µM.

`Cc1cnc2sc(C(N)=O)c(N)c2c1` had an IC50 in [1] of 19.9 µM.

In data set [1], `Cc1nc2sc(C(N)=O)c(N)c2c(C)c1Cl` returned a half-inhibitory concentration (IC50) of over 27.5 µM.

In [1], `Cc1cc(COc2ccc(C(N)=O)cc2)c2c(N)c(C(N)=O)sc2n1` gave an IC50 of 1.4 µM.

Regarding `CCCCc1cc(C)c2c(N)c(C(N)=O)sc2n1`, half-maximal inhibition in [1] (IC50) was put at 2.5 µM.

For the compound `COc1ccccc1-c1nc(C(N)=O)c(N)o1`, the 50% inhibitory concentration (IC50) in data set [1] worked out at 36.2 µM.

Consider `NC(=O)c1nc(-c2ccccc2Cl)oc1N`, for which, in data set [1], inhibition was half-maximal at 6.6 µM (IC50).

As to `Cc1cc(CC(C)C)nc2sc(C(N)=O)c(N)c12`, the IC50 in data set [1] is 4.1 µM.

Consider `NC(=O)c1nc(C2CCCCC2)oc1N`, for which the IC50 in [1] was over 32.5 µM.

In data set [1], `Cc1ccccc1-c1nc(C(N)=O)c(N)o1` returned an IC50 of 6.3 µM.
